“Also recorded” adds a separate entry of the source.
How the values were obtained:
[1] = tested on: primary intestinal epithelial cells; assay: screen of dietary compounds and natural products on primary intestinal epithelial cells on collagen hydrogel (Hoechst 33342, EDU, alkaline phosphatase, Muc2); type: cell-based; conditions: 48 h incubation at Table 1 concentration; for S-phase or proliferating cells (EDU) / number of nuclei / cell number (Hoechst 33342): relative to control cells cultured in ENR-W; for enterocyte phenotype (alkaline phosphatase expression): p=0.01 (#42), p=0.02 (#31), p=0.002 (#51); for growth suppression: both number of nuclei and S-phase cells significantly lower than control: p<0.01 versus control cells in ENR-W
Description: FIG. 11. The impact of dietary compounds and natural products on primary colonic epithelium. The percentage of the collagen Daiszein (aglycone of daidzen) surface area occupied by cells (Hoechst 33342-positive) and the normalized EDU (A), alkaline phosphatase and mucin2-positive areas (B) were plotted against the compound number. The EDU, alkaline phosphatase and Muc2 areas were normalized to the total cell area. Alphabetic headings refer to categories described in Table 1.
Strategies to screen the vast number of dietary and metabolite compounds for their impact on proliferation, differentiation and other cell behaviors in the intestine have become increasingly important. However, major challenges exist due to a lack of technologies capable of faithfully duplicating the actions of these compounds on normal, healthy colonic cells. […] These attributes are central to intestinal barrier function and repair in the face of repeated chemical, physical, immune and infectious insults. Additionally controlled proliferation and terminal differentiation are key to avoiding an oncogenic state. Metabolites or natural products minimizing intestinal-cell proliferation without cell death, enhancing cell proliferation, or directing cells into the differentiated lineages are of profound interest for health maintenance and as therapeutics. The compounds represented a range of chemical classes with diverse or unknown impact on primary intestinal cells including fatty acids, bile acids, flavenoids, phytoestrogens, phenols, terpenoids, nitrates, and others. 75,000 cells were cultured on the collagen hydrogel with ENR-W (but with 10 ng/mL Wnt-3A) for 24 h to enable cells to attach to the surface, followed by incubation with the dietary/natural compounds for 48 h. The cells were then analyzed sequentially for four attributes: nuclei (Hoechst 33342), S-phase or proliferating cells (EDU), enterocyte phenotype (high alkaline phosphatase), and goblet cell marker (Muc2) (FIGS. 11A-B). […] In particular, glucosinolates (#68, #69, #70), responsible for the bitterness of cabbage and brussel sprouts, are toxic when consumed at high concentrations and this may in part be due to their direct effects on intestinal cells. […] These included the most of the phenols assayed such as gallic acid (#28), ellagic acid (#29), and punicalagin (#31) but also compounds such as valproate (#6) and […]-carotene (#58) all of which are recognized in the literature as inducing cell differentiation. […] Molecules promoting enterocyte formation may exert some of their beneficial effects by enhancing intestinal barrier and/or absorptive function and thus may be worthy of additional investigation. […] Matairesinol increases COX-2-derived prostaglandin E2 in Caco-2 cells and prostaglandin E2 has been characterized as inducing Goblet cell formation in the colon to increase mucous secretion. Screening primary colon epithelium directly links the matairesinol to increased mucous production and this may be through a prostaglandin E pathway.

Caco-2 cells = conditions: cited from earlier work
CYP1A1 = assay: ethoxyresorufin O-deethylase (EROD) assay of CYP1A1 induction in the 2D colonic epithelial monolayer; type: cell-based, mouse; conditions: 0.1 μM TCDD
Experimental: FIG. 7. […] Top panel, day 0. Bottom panel, day 5. White dotted line indicates the perimeter of the insert. (B) SEM images of 2D monolayer. […] (C) Basal EROD activity and inducibility in 2D monolayer cells. 2D monolayer was cultured under ENR-WB for 5 days. […] CYP1A1 enzyme activity was determined using the ethoxyresorufin O-deethylase (EROD) assay, n=3.
Intestine is a vital organ that has many important functions (such as absorption, secretion, etc.). One function is metabolism through cytochrome P450 (CYP) enzyme activity that provides the principal, initial source of biotransformation/detoxification of ingested xenobiotics (Kaminsky, L. S. et al., Critical Reviews in Toxicology 21, 407-422 (1992)). Among the CYPs, CYP1A1 plays a physiological role in the degradation of estradiol into 2-OH-estradiol (Paine, M. F. et al., Drug Metabolism and Disposition 27, 360-364 (1999)). In vivo, CYP1A1 in rat intestines can be induced by feeding the rats with polycyclic aromatic hydrocarbons (PAHs) (Martignoni, M. et al., Chemico-Biological Interactions 151, 1-11 (2004)). […] The CYP1A1 enzyme activity was determined using an ethoxyresorufin O-deethylase (EROD) assay (Jones, S. P. et al., Ecotoxicology 23, 802-808 (2014)).

SMILES | S-phase or proliferating cells (EDU) [1] | number of nuclei / cell number (Hoechst 33342) [1] | further results
O=C1O[C@H]2[C@@H]3OC(=O)c4cc(O)c(O)c(O)c4-c4c(O)c(O)c5oc(=O)c6c(c(O)c(O)c7oc(=O)c4c5c76)-c4c(cc(O)c(O)c4O)C(=O)OC[C@H]3OC(O)[C@@H]2OC(=O)c2cc(O)c(O)c(O)c2-c2c1cc(O)c(O)c2O (mixture of isomers) [#31, Punicalagin] | suppressed proliferation | did not greatly diminish cell number; also recorded: without cell number reduction | enterocyte phenotype (alkaline phosphatase expression) ([1]; relative to control): directed cells towards the enterocyte lineage
COc1cc(-c2oc3cc(O)cc(O)c3c(=O)c2O)ccc1O [#21, Isorhamnetin] | increased cell numbers in S-phase |  | 
O=C(O)c1cc(O)c(O)c(O)c1 [#28, Gallic Acid] | suppressed proliferation | did not greatly diminish cell number | 
O=c1oc2c(O)c(O)cc3c(=O)oc4c(O)c(O)cc1c4c23 [#29, Ellagic Acid] | suppressed proliferation | did not greatly diminish cell number | 
CN[C@@H]1C[C@H]2O[C@@](C)([C@@H]1OC)n1c3ccccc3c3c4c(c5c6ccccc6n2c5c31)C(=O)NC4 [#32, Aglycones (Staurosporine), reference compound] | decreased | significantly increased | 
CC12CCC(CC1)C(C)(C)O2 [#42, Eucalyptol] | minimized cell proliferation |  | enterocyte phenotype (alkaline phosphatase expression) ([1]; relative to control): increasing alkaline phosphatase expression
C/C(=C\CO)CCC[C@H](C)CCC[C@H](C)CCCC(C)C [#51, Phytol] |  | without cell number reduction | enterocyte phenotype (alkaline phosphatase expression) ([1]; relative to control): directed cells towards the enterocyte lineage
CC1=C(/C=C/C(C)=C/C=C/C(C)=C/C=C/C=C(C)/C=C/C=C(C)/C=C/C2=C(C)CCCC2(C)C)C(C)(C)CCC1 [#58, β-carotene] | suppressed proliferation | did not greatly diminish cell number | 
S=C=NCc1ccccc1 [#68, Glucotropaeolin isothiocyanate] |  |  | growth suppression: both number of nuclei and S-phase cells significantly lower than control [1]: growth suppressive
O=S(=O)(O)ON=C(CCc1ccccc1)S[C@@H]1O[C@H](CO)[C@@H](O)[C@H](O)[C@H]1O [#69, Gluconasturtiin] |  |  | growth suppression: both number of nuclei and S-phase cells significantly lower than control [1]: growth suppressive
C[S+]([O-])CCCC/C(=N\OS(=O)(=O)O)S[C@@H]1O[C@H](CO)[C@@H](O)[C@H](O)[C@H]1O (some centres unmarked) [#70, Glucoraphanin] |  |  | growth suppression: both number of nuclei and S-phase cells significantly lower than control [1]: growth suppressive
COc1cc(C[C@H]2COC(=O)[C@@H]2Cc2ccc(O)c(OC)c2)ccc1O [#77, Matairesinol] |  |  | COX-2-derived prostaglandin E2 (Caco-2 cells): increases; goblet cell marker Muc2 or mucin expression ([1]; relative to control, p<0.01): significantly increased
Clc1cc2c(cc1Cl)Oc1cc(Cl)c(Cl)cc1O2 [TCDD, 2,3,7,8-tetrachlorodibenzo-p-dioxin] |  |  | CYP1A1 activity increased compared with the cells treated with toluene vehicle (CYP1A1; 2D monolayer cultured under ENR-WB 5 days, treated 20 hours, EROD assay): 40 fold; CYP1A1 enzyme activity induction by PAHs (CYP1A1; 2D monolayer treated 20 hours, 10 μM βNF, 1 μM BaP, toluene vehicle): effectively demonstrated
